# Test results from paper PMC11681159, “Bee pollen peptides as potent tyrosinase inhibitors with anti-melanogenesis effects in murine b16f10 melanoma cells and zebrafish embryos” (Scientific Reports, 2024).
# How the values were obtained:
# [1] = system: mushroom TYR; parameters: method as in PMID 19440221; settings: cited from earlier work
# Description: Abu Ubeid et al.[51]. conducted the screening of an internal library to identify the active oligopeptides capable of inhibiting TYR in mushrooms.
# [2] = system: zebrafish embryos; assay: Melanin inhibitory assay in zebrafish embryos; format: in vivo; settings: PTU 0.0015%, vs control
# Protocol: To perform the test of acute toxicity, a total of 20 fertilized zebrafish embryos were collected at around 4 h after fertilization and added to each well in a 12-well plate. These embryos then underwent treatment using different quantities of […] (2, 4, 6, 8, and 10 µM), while the negative control was distilled water and the positive control was 3,4-dichloroaniline. Incubation of the plate then took place until 48 h after fertilization at a temperature of 28.5 ± 1 °C. The test solutions were refreshed at 24 h after fertilization to allow the counting and removal of any dead embryos. Following exposure, a stereomicroscope (SZX16, Olympus, Japan) was used to record the embryo morphological effects. Meanwhile, a slightly modified version of a previously described melanin inhibitory assay was carried out[30]. The embryos were then homogenized using a cold lysis buffer (PBS pH 7.4, 1% Triton-X and 1% DMSF). The lysate then underwent 10 min of sonication before being placed in a centrifuge for 5 min at 10,000×g. The pellet was then removed from the centrifuge and dissolved in 200 µL of 1 N NaOH for 1 h at a temperature of 85 °C. This sample was subsequently vortexed and placed in the centrifuge for a further 5 min at 10,000×g. A microplate reader (Spectramax M5, Molecular Devices, USA) was then employed to determine the supernatant absorbance at 490 nm. Melanin content levels could then by calibrated by using the protein amount, and were reported in the form of a percentage compared to the untreated control. In the melanin inhibitory assay, the positive control used was phenylthiourea (PTU) solution (0.0015%).
# [3] = system: TYR (di-phenolase); settings: cited from earlier work
# Description: In order to check our own hypothesis concerning the ability of the peptide VY-9 to inhibit TYR, we created a synthetic peptide with a matching sequence to test the inhibition in the case of both mono-phenolase and di-phenolase forms. […] The plots can be seen in Fig. 3a-d, where four lines of differing gradients meet at the same intersection point for the vertical coordinate at varying concentrations of the VY-9 peptide.
# [4] = system: TYR (mono-phenolase); settings: cited from earlier work
# Description: In order to check our own hypothesis concerning the ability of the peptide VY-9 to inhibit TYR, we created a synthetic peptide with a matching sequence to test the inhibition in the case of both mono-phenolase and di-phenolase forms. […] Ge et al.[34]. noting that hydrophobic interactions with hydrophobic side chains located at the active sites of TYR could be increased by inhibitors which have aromatic ring structures. […] For instance, Schurink et al.[38]. performed the screening of seven different peptides offering TYR inhibition from protein ... || In order to understand the VY-9 peptide mechanism for TYR inhibition, the inhibition mode was investigated through the analysis of Lineweaver-Burk plots. The plots can be seen in Fig. 3a-d, where four lines of differing gradients meet at the same intersection point for the vertical coordinate at varying concentrations of the VY-9 peptide.
# [5] = system: A375 melanoma cells; settings: 0.5-1 mM; cited from earlier work
# [6] = system: TYR; settings: cited from earlier work
# Description: TIPs are now widely prepared via enzymatic hydrolysis, due to the ease of controlling the process and the absence of extreme reaction conditions. There are many commercially produced enzymes which are available to support TIP production, among which are trypsin, chymotrypsin, flavourzyme, alkaline protease, neutral protease, papain, and so forth. It is understood that different enzymes can differ in their hydrolytic impact upon a given material because the binding specificity between substrate and enzymes will vary. […] Further fractionation of the MW < 0.65 kDa ultrafiltrated fraction can be carried out by SEC using a Superdex 30 Increase column with a separation range of 100-7,000 Da. […] Where hydrophobic amino acids appear at each end of the peptide chain, this increases the interactivity with the copper active sites of TYR. Furthermore, it was reported by Wang et al.[33]. that a low-molecular-weight (700-1,700 Da) gelatin hydrolysate derived from the sea cucumber wall offered 55.7% hydrophobic amino acids. While the exterior environme ... || (+ 2 further places)
# [7] = system: skin; settings: treatment of hyperpigmentation; cited from earlier work
# Description: In producing cosmetic products and functional foods, safety is of the highest priority during the formulation process.
# [8] = system: human TYR; parameters: method as in PMID 19440221; settings: cited from earlier work
# [9] = system: human melanocytes; parameters: method as in PMID 19440221; settings: 100 µM, seven days; cited from earlier work
# [10] = system: cells; settings: cited from earlier work
# Description: (§1) One role of TYR, which is a binuclear copper enzyme, is to regulate melanogenesis. It acts as a catalyst for the hydroxylation of tyrosine and the oxidation of 3, 4-dihydroxyphenylalanine (L-DOPA) to o-dopaquinone which are the rate limiting reactions which occur during the synthesis of melanin. Skin color is dependent upon the level of melanin synthesis as well as the type of melanin and the way it is distributed through the keratinocytes. Achieving effective inhibition of TYR with minimal adverse side effects has remained a longstanding challenge within the realms of dermatological and cosme ...
# [11] = presence of water or oxygen; cited from earlier work
# Description: as §1
# [12] = system: melanoma cells; settings: 500 µM; cited from earlier work
# [13] = system: B16F10 melanoma cells; assay: Melanin content assay in B16F10 cells; format: cell-based, mouse; settings: arbutin 0.2 mM, 48 h, 405 nm
# Protocol: In order to assess melanin content, culture flasks were used to grow B16F10 cells (1 × 10^5 cells/flask) for 24 h. […] Cell harvesting was conducted by trypsinization and the cells were then rinsed twice in cold PBS. The cell pellets were then dissolved in 0.3 mL of 1 N NaOH to produce solutions which were heated to 90 °C for a one-hour period. The lysates were then placed in a centrifuge for 10 min at 3,000 × g whereupon a microplate reader was used to assess the melanin quantity at 405 nm. The protein content in the supernatant was evaluated using the Bradford protein assay with the findings presented in the form of a percentage of the control. Arbutin (0.2 mM) served as the positive control. Each trial was carried out in triplicate, with results presented in the form of mean ± standard deviation.
compound,measurement,setting,value
SFLLRN [oligopeptide of an internal library],IC50,[1],8000 µM
"NC(=S)Nc1ccccc1 [PTU, phenylthiourea, reference compound]",melanin content,[2],differed significantly (p < 0.01) to the control
"HPTSEVY [CT-3, rice bran protein hydrolysate peptide]","TYR inhibition, di-phenolase L-DOPA substrate reaction",[3],did not do so in the di-phenolase L-DOPA substrate reaction
same,"TYR inhibition, mono-phenolase tyrosine substrate reaction",[4],notable TYR inhibition
ECGYF,melanin level in A375 cells,[5],able to lower the melanin levels in cultured A375 melanoma cells more effectively than arbutin or glutathione
same,TYR inhibition vs arbutin and glutathione,[6],exceeded those of arbutin and glutathione
same,IC50,[6]; read-out: TYR inhibition IC50,460 µM
Oc1ccc(O)cc1 [hydroquinone],undesirable side effects,[7],"contact dermatitis, irritation of the skin, and exogenous ochronosis"
same,IC50,[1],680 µM
"YRSRKYSSWY [P4, peptide from an earlier study]",human TYR inhibition vs hydroquinone,[8],to a greater extent than was the case with hydroquinone
same,IC50,[1],40 µM
same,reduction in melanin content,[9],43%
ILFTLL,IC50 against TYR,[6],9250 µg/mL
TIPPPT,IC50 against TYR,[6],7590 µg/mL
IIPFIF,IC50 against TYR,[6],6160 µg/mL
GYSLGNWVCAAK [obtained from egg white protein],inhibition type,[6],competitively inhibit TYR
O=S(O)O [sulfite],toxicity towards cells,[10],high degree of toxicity towards cells
same,stability,[11],instability in the presence of water or oxygen
"LQPSHY [CT-2, rice bran protein hydrolysate peptide]",cytotoxic effects,[12],no cytotoxic effects were recorded
same,melanogenesis inhibition,[12],> 50%
same,"TYR inhibition, di-phenolase L-DOPA substrate reaction",[3],did not do so in the di-phenolase L-DOPA substrate reaction
same,"TYR inhibition, mono-phenolase tyrosine substrate reaction",[4],notable TYR inhibition
O=c1cc(CO)occ1O [kojic acid],toxicity towards cells,[10],high degree of toxicity towards cells
same,stability,[11],instability in the presence of water or oxygen
IQSPHFF [from Phage Display Library],Ki,[3]; competitive,765 µM
same,inhibition type,[3]; di-phenolase,competitive inhibitor
MRSRERSSWY [TH10],IC50,[4]; read-out: IC50 (tyrosine substrate of TYR),102 µM
"HGGEGGRPY [CT-1, rice bran protein hydrolysate peptide]","TYR inhibition, di-phenolase L-DOPA substrate reaction",[3],did not do so in the di-phenolase L-DOPA substrate reaction
same,"TYR inhibition, mono-phenolase tyrosine substrate reaction",[4],notable TYR inhibition
"OC[C@H]1O[C@@H](Oc2ccc(O)cc2)[C@H](O)[C@@H](O)[C@@H]1O [arbutin, reference compound]",reduction in melanin content,[13],54.34%
KFEKKFEK [oligopeptide of an internal library],IC50,[1],3600 µM
RADSRADC [oligopeptide of an internal library],human TYR inhibition vs hydroquinone,[8],to a greater extent than was the case with hydroquinone
same,IC50,[1],123 µM
same,reduction in melanin content,[9],27%
